Here are results for ten molecules from ChEMBL document CHEMBL1201862, “PubChem BioAssay data set” (2004).

Some test systems named below: A549; HT-29; NCI-H522; 786-0; NCI-H460; OVCAR-4; SW-620; Malme-3M; U-251; UACC-62; MDA-N; HOP-62; SNB-75; SN12C; SK-OV-3; LOX IMVI; NCI-H23; IGROV-1; OVCAR-5.
Assay in all cases: NCI anticancer screen, dose series, 48 h

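These data come from cells grown in 96-well plates and exposed to compound for 48 hours at five concentrations. GI50 = concentration required for 50% inhibition of growth.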 Active and inactive are the calls of the source. Cut-off read from the data, not from the text of the source: active = GI50 up to about 1.1 µM and inactive = higher.

As to `CC(C)NC1(C(N)=O)CCN(Cc2ccccc2)CC1`, the GI50 in the assay with A549, in the assay on HT-29, with NCI-H522, in the assay on 786-0, in the assay on NCI-H460 and in the assay with OVCAR-4 was > 100 µM (inactive) in each case. Also, the GI50 in the assay with SW-620, with Malme-3M, in the assay on U-251, with UACC-62, in the assay on MDA-N and in the assay on HOP-62 was > 100 µM (inactive) each time. Also, the GI50 with SNB-75, with SN12C, in the assay with SK-OV-3, with LOX IMVI, in the assay on NCI-H23 and with IGROV-1 was > 100 µM (inactive) each time. In addition, the GI50 in the assay with OVCAR-5 is > 100 µM (inactive).
Consider `Cc1cccc2c1C(=O)C1(Cc3ccccc3C1=O)C2` (stereo not given), for which the GI50 is > 100 µM (inactive) in the assay with A549; > 100 µM (inactive) in the assay on HT-29; > 100 µM (inactive) in the assay with NCI-H522; > 100 µM (inactive) in the assay on 786-0; 70.3 µM (inactive) in the assay with NCI-H460; > 100 µM (inactive) with OVCAR-4. Moreover, the GI50 is > 100 µM (inactive) in the assay with SW-620; > 100 µM (inactive) in the assay with Malme-3M; > 100 µM (inactive) with U-251; 84.7 µM (inactive) in the assay on UACC-62; > 100 µM (inactive) in the assay with MDA-N; > 100 µM (inactive) with HOP-62. Moreover, the GI50 in the assay with SNB-75 was 46.5 µM (inactive); with SN12C, > 100 µM (inactive); in the assay on SK-OV-3, > 100 µM (inactive); with LOX IMVI, > 100 µM (inactive); in the assay with NCI-H23, > 100 µM (inactive); in the assay on IGROV-1, > 100 µM (inactive). For the same molecule, the GI50 with OVCAR-5 was > 100 µM (inactive).
For the molecule `CC(C)(C)c1cc(C(P(=O)(c2ccccc2)c2ccccc2)P(=O)(c2ccccc2)c2ccccc2)cc(C(C)(C)C)c1O`, the GI50 with A549 is 2.89 µM (inactive); in the assay on HT-29 it was 2.08 µM (inactive); in the assay with NCI-H522 it was 2.28 µM (inactive); in the assay on 786-0, 2.8 µM (inactive); in the assay with NCI-H460 it was 2.11 µM (inactive); in the assay with OVCAR-4, 3.35 µM (inactive). For the same molecule, the GI50 in the assay with SW-620 was 3.21 µM (inactive); with Malme-3M, 2.47 µM (inactive); in the assay with U-251, 2.77 µM (inactive); with UACC-62, 1.58 µM (inactive); with MDA-N it was 1.91 µM (inactive); in the assay with HOP-62 it was 2.56 µM (inactive). Also, the GI50 in the assay on SNB-75 was 2.71 µM (inactive); in the assay on SN12C, 3.39 µM (inactive); in the assay with SK-OV-3 it was 3.11 µM (inactive); in the assay on LOX IMVI, 1.92 µM (inactive); with NCI-H23, 2.84 µM (inactive); in the assay with IGROV-1, 3.12 µM (inactive). Further, the GI50 with OVCAR-5 is 2.56 µM (inactive).
In the case of `CC(=O)CCC[C@@H](C)[C@@H]1O[C@H]([C@@]2(C)CCC(=O)O2)C[C@H]2C(CSc3ccccc3)C(=O)O[C@@H]12` (stereo not given in full), the GI50 is 13.8 µM (inactive) in the assay on A549; 17 µM (inactive) with HT-29; 3.6 µM (inactive) in the assay with NCI-H522; 12.9 µM (inactive) in the assay on 786-0; 20.7 µM (inactive) in the assay on NCI-H460; 13.2 µM (inactive) in the assay on OVCAR-4. In addition, the GI50 in the assay with SW-620 is 10.3 µM (inactive); with Malme-3M, 8.09 µM (inactive); in the assay with U-251, 16.9 µM (inactive); with UACC-62, 14.5 µM (inactive); in the assay with MDA-N, 13.8 µM (inactive); with HOP-62, 65.2 µM (inactive). Also, the GI50 is > 40.4 µM (inactive) in the assay on SNB-75; 14.9 µM (inactive) in the assay with SN12C; 44.7 µM (inactive) in the assay on SK-OV-3; 12.4 µM (inactive) in the assay on LOX IMVI; 17.9 µM (inactive) in the assay with NCI-H23; 9.66 µM (inactive) in the assay with IGROV-1. Besides, the GI50 in the assay with OVCAR-5 was 15.1 µM (inactive).
Consider `O=C(O)CN(CC(=O)O)C1CCCCC1N1CC(=O)OC(=O)C1` (stereo not given), for which the GI50 with A549 was > 100 µM (inactive); with HT-29, 38.4 µM (inactive); in the assay on NCI-H522 it was > 100 µM (inactive); with 786-0, > 100 µM (inactive); in the assay with NCI-H460 it was > 100 µM (inactive); in the assay with OVCAR-4 it was > 100 µM (inactive). In addition, the GI50 is 42.6 µM (inactive) in the assay on SW-620; 10.3 µM (inactive) in the assay on Malme-3M; 43.4 µM (inactive) in the assay with U-251; > 100 µM (inactive) in the assay on UACC-62; > 100 µM (inactive) in the assay with MDA-N; > 100 µM (inactive) in the assay on HOP-62. Moreover, the GI50 in the assay on SNB-75 was 17.2 µM (inactive); with SN12C it was > 100 µM (inactive); in the assay with SK-OV-3 it was > 100 µM (inactive); in the assay on LOX IMVI it was > 100 µM (inactive); in the assay on NCI-H23 it was > 100 µM (inactive); with IGROV-1, 49.1 µM (inactive). Moreover, the GI50 in the assay with OVCAR-5 was > 100 µM (inactive).
`COc1nc2ccc(COc3ccc(C(=O)O)cc3)cc2nc1OC`: the GI50 in the assay with A549, with HT-29, with NCI-H522, in the assay on 786-0, with NCI-H460 and in the assay on OVCAR-4 was > 100 µM (inactive) each time. Further, the GI50 in the assay with SW-620 was 83.8 µM (inactive); in the assay with Malme-3M it was > 100 µM (inactive); with U-251, 87.1 µM (inactive); in the assay on UACC-62 it was 33.6 µM (inactive); in the assay with MDA-N, 38.2 µM (inactive); in the assay on HOP-62 it was > 100 µM (inactive). The GI50 in the assay with SNB-75 was 11.7 µM (inactive); in the assay with SN12C, > 100 µM (inactive); with SK-OV-3, > 100 µM (inactive); in the assay on LOX IMVI, 54.1 µM (inactive); with NCI-H23, > 100 µM (inactive); in the assay with IGROV-1, > 100 µM (inactive). The GI50 in the assay on OVCAR-5 was > 100 µM (inactive).
Take `Cc1cnc2c(c1)C(=O)N(c1ccc([N+](=O)[O-])cc1)S2(=O)=O`: the GI50 in the assay with A549 is 95.9 µM (inactive); in the assay on HT-29 it was > 100 µM (inactive); in the assay on NCI-H522, 25.1 µM (inactive); in the assay on 786-0, > 100 µM (inactive); in the assay with NCI-H460, > 100 µM (inactive); in the assay on OVCAR-4 it was 78 µM (inactive). Besides, the GI50 in the assay on SW-620 was 58.7 µM (inactive); in the assay with Malme-3M it was 22.4 µM (inactive); in the assay on U-251, 67.1 µM (inactive); with UACC-62 it was 75.5 µM (inactive); in the assay on MDA-N, 93.5 µM (inactive); in the assay with HOP-62 it was > 100 µM (inactive). The GI50 with SNB-75 was 61.1 µM (inactive); in the assay with SN12C, > 100 µM (inactive); with SK-OV-3, > 100 µM (inactive); in the assay on LOX IMVI, 73.5 µM (inactive); in the assay with NCI-H23, > 100 µM (inactive); in the assay with IGROV-1 it was 30.3 µM (inactive). In the assay on OVCAR-5, the GI50 is > 100 µM (inactive).
On to `CC1(C)OCC2OC3(c4nc(C#N)c(N)o4)OC(C)(C)OC3C2O1` (stereo not given), for which the GI50 in the assay with A549, in the assay on HT-29, in the assay on NCI-H522, with 786-0, with NCI-H460 and in the assay on OVCAR-4 was > 100 µM (inactive) throughout. The GI50 in the assay with SW-620, in the assay on Malme-3M, with U-251, with UACC-62, in the assay on MDA-N and in the assay with HOP-62 was > 100 µM (inactive) each time. In addition, the GI50 in the assay with SNB-75, with SN12C, in the assay with SK-OV-3, in the assay with LOX IMVI, in the assay on NCI-H23 and with IGROV-1 was > 100 µM (inactive) in each case. Also, the GI50 in the assay on OVCAR-5 is > 100 µM (inactive).
On to `O=C(CCCN1CCC2(CC1)NC(=O)c1ccccc1O2)c1ccc(F)cc1`, for which the GI50 is > 100 µM (inactive) with A549; 43.3 µM (inactive) in the assay with HT-29; > 100 µM (inactive) in the assay with NCI-H522; > 100 µM (inactive) with 786-0; > 100 µM (inactive) with NCI-H460; 91 µM (inactive) in the assay with OVCAR-4. Also, the GI50 in the assay with SW-620 is > 100 µM (inactive); with Malme-3M, 70.6 µM (inactive); with U-251, > 100 µM (inactive); in the assay on UACC-62 it was > 100 µM (inactive); in the assay with MDA-N, > 100 µM (inactive); in the assay on HOP-62, > 100 µM (inactive). Also, the GI50 with SNB-75 is > 100 µM (inactive); in the assay on SN12C, > 100 µM (inactive); in the assay with SK-OV-3 it was > 100 µM (inactive); in the assay with LOX IMVI it was 80 µM (inactive); in the assay with NCI-H23 it was > 100 µM (inactive); in the assay on IGROV-1 it was > 100 µM (inactive). In addition, in the assay on OVCAR-5, the GI50 is 87.1 µM (inactive).
Turning to `C/C(=N\Nc1nc2ccccc2o1)c1ccc2ccccc2n1`, the GI50 with A549 was 4.2 µM (inactive); in the assay on HT-29, 1.89 µM (inactive); with NCI-H522, 1.94 µM (inactive); in the assay with 786-0, 3.68 µM (inactive); in the assay on NCI-H460 it was 3.7 µM (inactive); with OVCAR-4 it was 1.3 µM (inactive). Besides, the GI50 is 4.07 µM (inactive) in the assay with SW-620; 4.21 µM (inactive) in the assay with Malme-3M; 3.21 µM (inactive) in the assay on U-251; 3.8 µM (inactive) with UACC-62; 6.49 µM (inactive) in the assay with MDA-N; 4.53 µM (inactive) in the assay on HOP-62. The GI50 is 11.6 µM (inactive) in the assay with SNB-75; 3.42 µM (inactive) in the assay with SN12C; 23.1 µM (inactive) in the assay with SK-OV-3; 2.86 µM (inactive) in the assay with LOX IMVI; 8.75 µM (inactive) in the assay with NCI-H23; 0.356 µM (active) in the assay on IGROV-1. For the same molecule, the GI50 in the assay with OVCAR-5 was 2.93 µM (inactive).
